# How the values were obtained:
# PKCnu/PRKD3 = molecular target: T1, PKCnu/PRKD3 (Homo sapiens, UniProt O94806); assay: biochemical; conditions: read-out: % enzyme activity, 1 μM; Run 1, Run 2
# T1 sequence (O94806 1-890): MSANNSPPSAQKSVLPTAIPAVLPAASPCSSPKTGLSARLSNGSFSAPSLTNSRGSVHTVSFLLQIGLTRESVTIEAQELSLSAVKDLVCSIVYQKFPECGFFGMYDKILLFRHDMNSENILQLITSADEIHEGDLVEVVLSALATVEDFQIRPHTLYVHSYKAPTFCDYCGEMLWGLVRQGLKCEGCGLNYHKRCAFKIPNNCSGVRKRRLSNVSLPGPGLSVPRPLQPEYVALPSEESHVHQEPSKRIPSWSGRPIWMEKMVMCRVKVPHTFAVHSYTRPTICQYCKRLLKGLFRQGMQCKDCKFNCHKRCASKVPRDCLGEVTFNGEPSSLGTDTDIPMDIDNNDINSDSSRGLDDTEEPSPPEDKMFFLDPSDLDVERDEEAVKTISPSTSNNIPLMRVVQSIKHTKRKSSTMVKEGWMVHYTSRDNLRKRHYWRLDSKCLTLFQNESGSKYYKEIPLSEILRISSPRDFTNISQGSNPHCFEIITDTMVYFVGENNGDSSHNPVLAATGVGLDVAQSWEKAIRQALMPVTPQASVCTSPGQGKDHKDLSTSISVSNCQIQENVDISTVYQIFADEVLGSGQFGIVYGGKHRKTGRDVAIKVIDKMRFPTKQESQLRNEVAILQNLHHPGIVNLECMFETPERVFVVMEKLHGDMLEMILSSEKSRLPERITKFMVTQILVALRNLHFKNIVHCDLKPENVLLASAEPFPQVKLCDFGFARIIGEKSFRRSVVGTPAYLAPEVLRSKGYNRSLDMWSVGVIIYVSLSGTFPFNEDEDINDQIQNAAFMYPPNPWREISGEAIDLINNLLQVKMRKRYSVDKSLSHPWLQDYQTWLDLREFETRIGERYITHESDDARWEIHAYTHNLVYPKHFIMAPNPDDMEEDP
# BRSK1 = molecular target: T2, BRSK1 (Homo sapiens, UniProt Q8TDC3); assay: biochemical; conditions: read-out: % enzyme activity, 1 μM; Run 1, Run 2
# T2 sequence (Q8TDC3 1-778): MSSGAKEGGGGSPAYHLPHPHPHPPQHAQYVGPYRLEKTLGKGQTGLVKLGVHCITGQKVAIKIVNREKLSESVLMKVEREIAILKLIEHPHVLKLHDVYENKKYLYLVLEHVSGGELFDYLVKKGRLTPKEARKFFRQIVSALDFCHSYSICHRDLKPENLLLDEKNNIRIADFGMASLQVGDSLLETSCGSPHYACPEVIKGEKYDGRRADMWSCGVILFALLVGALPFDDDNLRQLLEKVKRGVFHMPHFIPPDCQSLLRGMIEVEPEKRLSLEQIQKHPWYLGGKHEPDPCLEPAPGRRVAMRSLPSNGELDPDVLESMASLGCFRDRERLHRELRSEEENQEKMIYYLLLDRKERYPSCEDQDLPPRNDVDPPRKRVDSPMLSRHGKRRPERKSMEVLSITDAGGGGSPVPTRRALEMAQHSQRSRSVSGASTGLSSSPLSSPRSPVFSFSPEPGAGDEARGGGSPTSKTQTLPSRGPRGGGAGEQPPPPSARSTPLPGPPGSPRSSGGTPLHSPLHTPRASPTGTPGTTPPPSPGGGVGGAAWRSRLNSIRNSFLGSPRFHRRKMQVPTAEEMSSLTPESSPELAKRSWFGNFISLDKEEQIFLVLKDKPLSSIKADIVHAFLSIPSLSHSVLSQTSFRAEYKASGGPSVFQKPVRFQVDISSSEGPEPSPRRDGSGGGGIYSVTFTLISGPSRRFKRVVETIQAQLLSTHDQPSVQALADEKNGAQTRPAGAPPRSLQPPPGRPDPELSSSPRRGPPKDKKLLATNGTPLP
# P38d/MAPK13 = molecular target: T3, P38d/MAPK13 (Homo sapiens, UniProt O15264); assay: biochemical; conditions: read-out: % enzyme activity, 1 μM; Run 1, Run 2
# T3 sequence (O15264 1-365): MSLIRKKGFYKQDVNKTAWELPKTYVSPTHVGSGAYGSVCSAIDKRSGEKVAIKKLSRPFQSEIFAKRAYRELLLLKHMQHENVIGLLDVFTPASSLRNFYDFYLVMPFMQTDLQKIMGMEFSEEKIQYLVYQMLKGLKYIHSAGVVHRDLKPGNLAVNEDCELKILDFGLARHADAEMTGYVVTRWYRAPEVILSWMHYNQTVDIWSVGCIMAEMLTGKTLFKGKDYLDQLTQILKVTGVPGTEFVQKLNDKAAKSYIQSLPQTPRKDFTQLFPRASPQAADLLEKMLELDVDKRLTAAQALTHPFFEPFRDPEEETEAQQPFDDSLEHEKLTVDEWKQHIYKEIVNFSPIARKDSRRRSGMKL
# GCK/MAP4K2 = molecular target: T4, GCK/MAP4K2 (Homo sapiens, UniProt Q12851); assay: biochemical; conditions: read-out: % enzyme activity, 1 μM; Run 1, Run 2
# T4 sequence (Q12851 1-820): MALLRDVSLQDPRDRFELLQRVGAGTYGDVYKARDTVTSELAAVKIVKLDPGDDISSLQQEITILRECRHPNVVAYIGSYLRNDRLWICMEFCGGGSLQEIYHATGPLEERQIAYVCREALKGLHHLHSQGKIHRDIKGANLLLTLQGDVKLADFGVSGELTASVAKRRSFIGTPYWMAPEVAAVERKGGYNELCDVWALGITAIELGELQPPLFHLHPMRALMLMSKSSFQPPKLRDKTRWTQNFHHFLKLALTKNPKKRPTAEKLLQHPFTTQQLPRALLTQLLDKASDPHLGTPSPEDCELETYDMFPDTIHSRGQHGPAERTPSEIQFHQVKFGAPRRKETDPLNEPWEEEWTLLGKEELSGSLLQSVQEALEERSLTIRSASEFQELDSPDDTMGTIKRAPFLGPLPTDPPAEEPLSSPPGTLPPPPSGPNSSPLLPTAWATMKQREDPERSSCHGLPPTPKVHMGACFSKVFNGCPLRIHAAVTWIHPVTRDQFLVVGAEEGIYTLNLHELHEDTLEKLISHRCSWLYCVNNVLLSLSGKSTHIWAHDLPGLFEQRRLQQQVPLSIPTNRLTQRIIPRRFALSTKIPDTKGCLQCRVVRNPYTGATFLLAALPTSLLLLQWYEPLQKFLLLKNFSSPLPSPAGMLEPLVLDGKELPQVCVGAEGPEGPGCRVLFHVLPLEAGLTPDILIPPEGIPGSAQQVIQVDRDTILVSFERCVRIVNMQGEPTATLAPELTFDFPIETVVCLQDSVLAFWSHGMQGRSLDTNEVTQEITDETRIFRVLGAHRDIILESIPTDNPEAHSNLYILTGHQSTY
# IGF1R = IGF1R (Homo sapiens, UniProt P08069); conditions: 1 μM; Run 1, Run 2
# CAMK1g = CAMK1g (Homo sapiens, UniProt Q96NX5); conditions: 1 μM; Run 1, Run 2
# Chain of CAMK1g (Q96NX5 whole entry): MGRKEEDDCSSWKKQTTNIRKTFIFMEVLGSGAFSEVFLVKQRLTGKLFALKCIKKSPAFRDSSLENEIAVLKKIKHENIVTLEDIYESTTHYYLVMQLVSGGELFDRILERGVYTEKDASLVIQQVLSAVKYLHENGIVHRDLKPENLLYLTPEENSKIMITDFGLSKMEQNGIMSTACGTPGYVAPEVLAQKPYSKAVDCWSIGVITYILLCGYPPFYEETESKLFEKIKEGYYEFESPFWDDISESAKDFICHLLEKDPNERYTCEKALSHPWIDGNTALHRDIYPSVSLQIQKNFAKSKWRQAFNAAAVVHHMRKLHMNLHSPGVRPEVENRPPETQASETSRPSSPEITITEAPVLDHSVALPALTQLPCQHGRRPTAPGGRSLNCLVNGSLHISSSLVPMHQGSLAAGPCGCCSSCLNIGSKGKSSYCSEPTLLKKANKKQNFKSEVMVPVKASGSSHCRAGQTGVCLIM
# Chain of IGF1R (P08069 31-1367): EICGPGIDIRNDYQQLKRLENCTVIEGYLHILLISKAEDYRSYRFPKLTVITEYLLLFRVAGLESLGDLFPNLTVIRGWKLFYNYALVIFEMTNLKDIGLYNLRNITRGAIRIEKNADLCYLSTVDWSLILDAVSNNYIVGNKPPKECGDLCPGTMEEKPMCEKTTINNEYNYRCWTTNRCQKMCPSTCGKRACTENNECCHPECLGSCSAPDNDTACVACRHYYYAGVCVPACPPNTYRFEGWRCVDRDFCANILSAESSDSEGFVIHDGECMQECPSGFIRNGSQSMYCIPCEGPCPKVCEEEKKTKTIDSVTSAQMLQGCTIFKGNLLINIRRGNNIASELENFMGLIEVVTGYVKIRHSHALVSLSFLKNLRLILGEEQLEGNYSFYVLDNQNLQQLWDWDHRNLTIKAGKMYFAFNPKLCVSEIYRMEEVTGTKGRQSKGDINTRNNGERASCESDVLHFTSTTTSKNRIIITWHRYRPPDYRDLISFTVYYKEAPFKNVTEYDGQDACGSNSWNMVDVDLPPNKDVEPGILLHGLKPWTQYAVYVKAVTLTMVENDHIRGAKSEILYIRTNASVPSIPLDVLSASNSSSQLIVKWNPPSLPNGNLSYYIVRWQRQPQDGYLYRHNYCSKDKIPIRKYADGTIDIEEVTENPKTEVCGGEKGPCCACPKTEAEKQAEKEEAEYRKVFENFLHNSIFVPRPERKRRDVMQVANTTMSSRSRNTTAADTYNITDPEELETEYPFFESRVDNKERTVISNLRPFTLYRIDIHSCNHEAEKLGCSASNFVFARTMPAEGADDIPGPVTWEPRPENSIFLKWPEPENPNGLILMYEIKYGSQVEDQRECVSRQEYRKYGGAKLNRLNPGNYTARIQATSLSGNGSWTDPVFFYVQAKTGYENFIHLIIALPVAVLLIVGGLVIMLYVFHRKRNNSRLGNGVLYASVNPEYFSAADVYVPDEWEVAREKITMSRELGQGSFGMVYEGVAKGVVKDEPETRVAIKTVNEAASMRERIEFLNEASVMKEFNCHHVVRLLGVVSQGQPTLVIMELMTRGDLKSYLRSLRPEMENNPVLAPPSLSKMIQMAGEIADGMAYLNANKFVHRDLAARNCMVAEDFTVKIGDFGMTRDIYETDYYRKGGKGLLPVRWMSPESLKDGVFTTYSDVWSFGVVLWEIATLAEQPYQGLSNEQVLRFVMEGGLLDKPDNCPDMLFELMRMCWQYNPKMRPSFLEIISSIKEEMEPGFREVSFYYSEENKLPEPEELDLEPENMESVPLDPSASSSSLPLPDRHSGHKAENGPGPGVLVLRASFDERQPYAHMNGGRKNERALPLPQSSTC
Structure (SMILES),remaining activity at 1 µM (PKCnu/PRKD3) [%],remaining activity at 1 µM (BRSK1) [%],remaining activity at 1 µM (P38d/MAPK13) [%],remaining activity at 1 µM (GCK/MAP4K2) [%],% enzyme activity (IGF1R) [%],% enzyme activity (CAMK1g) [%]
"COc1cc(-c2cncc(-c3ccc(N4CCN(C)CC4)cc3)c2C)cc(F)c1C(N)=O [Compound 26a, 2-Fluoro-6-methoxy-4-(4-methyl-5-(4-(4-methylpiperazin-1-yl)phenyl)pyridin-3-yl)benzamide]",82.2,84.7,101,61.8,98.31,99.10
"COc1cc(-c2cncc(-c3ccc(N4C[C@@H](C)N(C)[C@@H](C)C4)cc3)c2C)cc(F)c1C(N)=O [Compound 26c, 2-Fluoro-6-methoxy-4-(4-methyl-5-(4-((3R,5S)-3,4,5-trimethylpiperazin-1-yl)phenyl)pyridin-3-yl)benzamide]",89,84,97.7,75.4,94.80,107.66

# Source: PMC8213057, “Targeting ALK2: An Open Science Approach to Developing Therapeutics for the Treatment of Diffuse Intrinsic Pontine Glioma” (Journal of Medicinal Chemistry, 2020)
